In experiment [1] the test system is MDA-MB-231 breast cancer cells. As to the kind of experiment: In vitro adhesion assay to ECM proteins, MDA-MB-231. Particulars: 16 h pretreatment, mean ± SE of 3 experiments. The format is cell-based, human. As for the experimental part: In vitro adhesion assays were used to evaluate the effects of [VO(SO4)(Me2-Phen)2] on the adhesive properties of U87 and MDA-MD-231 cells as described previously (Narla et al., Clin Cancer Res, 4: 2463-2471, 1998). The plates for the adhesion assays were pre-coated with the extracellular matrix (ECM) proteins laminin, fibronectin, vitronectin and type IV collagen (each at a final concentration of 1 μg/ml in PBS) overnight at 4° C. and dried. Exponentially-growing cells (as described in the previous Example) were incubated with [VO(SO4)(Me2-Phen)2] at concentrations ranging from 0.5 μM to 25 μM for 16 hours in a humidified 5% CO2 atmosphere. The cells were then detached from the flasks with 0.05% trypsin (Life Technologies), resuspended in medium, incubated at 37° C. for 2 hours to allow them to recover from the trypsinization stress and examined for their ability to adhere to the plates precoated with ECM proteins. Cells were centrifuged, washed twice with serum-free medium, counted and resuspended in serum-free medium at a final concentration of 2.5×10^5 cells/ml. The cell suspension was added to each well in aliquots of 100 μl and the cells were allowed to adhere for one hour at 37° C. in a humidified 5% CO2atmosphere. The non-adherent cells were removed by gently washing the cells with PBS. The adherent fraction was quantitated using MTT assays as previously described (Narla, Supra).
U87 glioblastoma and MDA-MD-231 breast cancer cells were preincubated with various concentrations of [VO(SO4)(Me2-Phen)2] and processed for adhesion assays. [VO(SO4)(Me2-Phen)2] inhibited adhesion of the U87 and MDA-MB-231 cells to extracellular matrix (ECM) proteins, Pretreatment of cells with [VO(SO4)(Me2-Phen)2] inhibited the adhesion of U87 glioblastoma and MDA-MB-231 breast cancer cells to laminin-, fibronectin-, vitronectin- and collagen-coated plates. The inhibition of glioblastoma cell adhesion was concentration-dependent with mean (±SE) IC50 values from 3 independent experiments shown in the table below.

In experiment [2] the test system is U373 glioblastoma cell spheroids. As to the kind of experiment: Spheroid migration assay. The experiment is classed as cell-based, human. The following applies: for inhibition of tumor cell migration from the spheroids / migration distance: U373 spheroids; for migration distance: 48 h (DMSO control 745±29 μm). As for the experimental part:
Dissociation and migration are the initial steps for infiltration of tumor cells into the surrounding tissue (Pilkington et al., Anticancer Res., 17: 4107-4109, 1997; Giese et al., Neurosurgery, 39: 235-252, 1996; Chintala et al., Front Biosci, 1: d324-39, 1996). Migration of brain tumor cells was monitored using U373 glioblastoma cell spheroids, as described previously (Narla et al., Clin Cancer Res, 4:2463-2471, 1998). Glioblastoma cell spheroids were cultured in 100 mm^2 tissue culture plates precoated with 0.75% agar prepared in MEM supplemented with 10% fetal bovine serum. The cells (5×10^6 cells) were suspended in the medium, seeded onto agar-coated plates and cultured for 5-7 days at 37° C. Spheroids with a diameter of 200-400 μm were selected for use in further experiments. For the migration experiments, the selected spheroids were incubated for 2 hours at 37° C. in serum-free medium containing [VO(SO4)(Me2-Phen)2] in concentrations ranging from 1 μM to 25 μM. The [VO(SO4)(Me2-Phen)2]-treated and vehicle control (DMSO, 0.1%) spheroids were transferred onto fibronectin-coated coverslips (Becton Dickinson, Bedford, Mass.) and placed in 6-well plates containing the same concentrations of [VO(SO4)(Me2-Phen)2] or DMSO in serum-free medium. Spheroids were then kept in a humidified 5CO2 incubator at 37° C. for 48 hours. A total of 4-6 spheroids were used for each concentration. Following the 48 hours incubation period, the spheroids were fixed and stained with Hema-3 solutions and mounted onto glass slides. The distance of tumor cell migration from the spheroid was measured using an ocular micrometer and a transmitted light microscope.
Spheroids measuring 259.2±41.9 μm in diameter were incubated with [VO(SO4)(Me2-Phen)2] or DMSO on fibronectin-coated coverslips. The U373 gioblastoma cells incubated with DMSO rapidly migrated to a distance 745±29 μm away from the spheroid.

Experiment [3] relates to U87 human glioblastoma xenografts. The experiment in a line: SCID mouse xenograft model of human glioblastoma. The format is in vivo, SCID mice. As for the experimental part:
FIGS. 1A-1B illustrate the in vivo antitumor activity of the vanadium compound, [VO(SO4)(Me2-Phen)2] against human glioblastoma and breast cancer in SCID mice. The effects of daily treatment with [VO(SO4)(Me2-Phen)2] (10 mg/kg/day) or 5% DMSO in PBS (given five days per week for four weeks beginning the day after inoculation) on tumor growth and progression of glioblastoma (FIG. 1A) and breast cancer (FIG. 1B) are illustrated. Comparisons between groups were done using the log-rank test.
The animal protocols used in this study were approved by the Parker Hughes Institute Institutional Animal Care and Use Committee (IACUC). […]
The right and left hind legs of the SCID mice were inoculated subcutaneously with 1×10^6 U87 human glioblastoma and 1×10^6 MDA-MB-231 beast cancer cells, respectively, in 0.1 mL PBS. […] Mice were monitored daily for health status as well as tumor growth and were sacrificed if they became moribund, developed tumors which impeded their ability to attain food or water, or at the ed of the six-week observation period. Tumors were measured using Vernier calipers three times per week. Tumor volumes were calculated according to the following formula, as described previously (Narla et al., Clin Cancer Res., 4: 1405-14, 1998; Friedman et al., Cancer Res., 55: 2853-2857, 1995): Tumor volume=(Width)^2(Length)/2. […]
A general note: Xenograft models place foreign cells or tissue in a host animal.

The record followed here is patent US6878388B1, “Vanadium compounds for treating proliferative cell disorders” (Parker Hughes Institute, priority 2000, dated 2005).

Like-named read-outs stand apart in the source and are kept apart here.

With `Cc1ccnc2c1ccc1c(C)ccnc12.Cc1ccnc2c1ccc1c(C)ccnc12.O=S(=O)([O-])[O-].[O]=[V+2]` [[VO(SO4)(Me2-Phen)2], bis(4,7-dimethyl-1,10-phenanthroline) sulfatooxovanadium (IV)], the IC50 in experiment [1] (MDA-MB-231, fibronectin-coated plates, read-out: IC50 inhibition of adhesion to fibronectin) stood at 1000 nM; in experiment [1] (MDA-MB-231, laminin-coated plates, read-out: IC50 inhibition of adhesion to laminin), 1000 ± 100 nM; in experiment [1] (MDA-MB-231, type IV collagen-coated plates, read-out: IC50 inhibition of adhesion to collagen), 1300 nM; in experiment [1] (MDA-MB-231, vitronectin-coated plates, read-out: IC50 inhibition of adhesion to vitronectin), 1100 ± 100 nM; in experiment [2] (U373 spheroids on fibronectin-coated coverslips, 48 h, read-out: IC50 inhibition of tumor cell migration), 1400 ± 200 nM. Also, the “inhibition of tumor cell migration from the spheroids” value is recorded as 58.3±7.3% in experiment [2] (1 μM, 48 h) and 71.2±3.4% in experiment [2] (2 μM, 48 h). For the same compound, the results for the migration distance in experiment [2] (1 μM) and in experiment [2] (2 μM) were 311.1±54.4 μm and 214.9±25.7 μm, respectively. The “average size of tumor xenografts” value in experiment [3] (U87, 1.5 months after inoculation, 10 mg/kg i.p., vehicle control 6928±653, P=0.007) was 3199±646 mm^3. In addition, the “mice remaining alive and free of detectable tumors for >16 days” value in experiment [3] (U87 xenografts, 10 mg/kg/dose i.p., five days per week for four weeks) stood at 40%.
